Laboratory results reported in ChEMBL document CHEMBL5303304, “EUbOPEN Chemogenomics Library - IncuCyte” (2023).

Tests used:
Type in all cases: toxicity, cell-based
U2OS = assay: Incucyte cell viability with U2OS; conditions: human, 10 µM, compound concentration 10 uM
HEK-293T = assay: Incucyte cell viability with HEK293T; conditions: human, 10 µM, compound concentration 10 uM
Fibroblast = assay: Incucyte cell viability with human fibroblast; conditions: 10 µM, compound concentration 10 uM
Note: unitless GR value; below 1 slowed growth and below 0 cell loss.

Compound: O=C1NCCc2c(OCCCCN3CCCCC3)cccc21
- Growth Rate (U2OS; 0 h, replicate number 2): -0.98
- Growth Rate (U2OS; 6 h, replicate number 1): 0.02
- Growth Rate (U2OS; 6 h, replicate number 2): 0.34
- Growth Rate (U2OS; 12 h, replicate number 1): 0.56
- Growth Rate (U2OS; 12 h, replicate number 2): 0.86
- Growth Rate (U2OS; 18 h, replicate number 1): 0.79
- Growth Rate (U2OS; 18 h, replicate number 2): 0.88
- Growth Rate (U2OS; 24 h, replicate number 1): 0.79
- Growth Rate (U2OS; 24 h, replicate number 2): 0.83
- Growth Rate (HEK-293T; 0 h, replicate number 1): 0.6
- Growth Rate (HEK-293T; 0 h, replicate number 2): 0.67
- Growth Rate (HEK-293T; 6 h, replicate number 1): 0.81
- Growth Rate (Fibroblast; 0 h, replicate number 1): 0.29
- Growth Rate (Fibroblast; 0 h, replicate number 2): -0.96
- Growth Rate (Fibroblast; 6 h, replicate number 1): 0.19
- Growth Rate (Fibroblast; 12 h, replicate number 1): -0.5
- Growth Rate (Fibroblast; 12 h, replicate number 2): 0.64
- Growth Rate (Fibroblast; 18 h, replicate number 2): 0.79
- Growth Rate (Fibroblast; 24 h, replicate number 2): 0.76

Compound: Clc1ccccc1C(c1ccccc1)(c1ccccc1)n1ccnc1 [CLOTRIMAZOLE]
- Growth Rate (U2OS; 0 h, replicate number 2): 0.7
- Growth Rate (U2OS; 6 h, replicate number 2): 0.77
- Growth Rate (U2OS; 12 h, replicate number 1): 0.97
- Growth Rate (U2OS; 12 h, replicate number 2): 0.94
- Growth Rate (U2OS; 18 h, replicate number 2): 0.81
- Growth Rate (U2OS; 24 h, replicate number 2): 0.76
- Growth Rate (HEK-293T; 0 h, replicate number 1): 0.08
- Growth Rate (HEK-293T; 0 h, replicate number 2): -0.96
- Growth Rate (HEK-293T; 6 h, replicate number 2): 0.62
- Growth Rate (HEK-293T; 12 h, replicate number 2): 0.5
- Growth Rate (HEK-293T; 18 h, replicate number 1): 0.79
- Growth Rate (HEK-293T; 18 h, replicate number 2): 0.54
- Growth Rate (HEK-293T; 24 h, replicate number 1): 0.72
- Growth Rate (HEK-293T; 24 h, replicate number 2): 0.41
- Growth Rate (Fibroblast; 0 h, replicate number 1): 0.95
- Growth Rate (Fibroblast; 0 h, replicate number 2): 0.29
- Growth Rate (Fibroblast; 18 h, replicate number 1): 0.54
- Growth Rate (Fibroblast; 18 h, replicate number 2): 1
- Growth Rate (Fibroblast; 24 h, replicate number 1): 0.82

Compound: COc1ccc2nc3ccc(OC)cc3c(SCCCN)c2c1.Cl
- Growth Rate (U2OS; 0 h, replicate number 2): -0.96
- Growth Rate (U2OS; 18 h, replicate number 2): 0.99
- Growth Rate (U2OS; 24 h, replicate number 1): 0.86
- Growth Rate (U2OS; 24 h, replicate number 2): 0.85
- Growth Rate (HEK-293T; 6 h, replicate number 1): -0.94
- Growth Rate (HEK-293T; 6 h, replicate number 2): 0.26
- Growth Rate (HEK-293T; 12 h, replicate number 1): -0.75
- Growth Rate (HEK-293T; 12 h, replicate number 2): 0.76
- Growth Rate (HEK-293T; 18 h, replicate number 1): -0.57
- Growth Rate (HEK-293T; 18 h, replicate number 2): 0.45
- Growth Rate (HEK-293T; 24 h, replicate number 1): -0.41
- Growth Rate (HEK-293T; 24 h, replicate number 2): 0.33
- Growth Rate (Fibroblast; 0 h, replicate number 2): -0.39
- Growth Rate (Fibroblast; 6 h, replicate number 1): -1
- Growth Rate (Fibroblast; 24 h, replicate number 2): 0.89

Compound: C[S+](C)[O-] [DIMETHYL SULFOXIDE]
- Growth Rate (U2OS; 0 h, replicate number 2): 0.1
- Growth Rate (U2OS; 6 h, replicate number 1): 0.89
- Growth Rate (U2OS; 6 h, replicate number 2): 0.27
- Growth Rate (U2OS; 12 h, replicate number 2): 0.44
- Growth Rate (U2OS; 18 h, replicate number 2): 0.5
- Growth Rate (U2OS; 24 h, replicate number 2): 0.44
- Growth Rate (HEK-293T; 0 h, replicate number 1): 0.12
- Growth Rate (HEK-293T; 0 h, replicate number 2): 0.07
- Growth Rate (HEK-293T; 6 h, replicate number 2): 0.48
- Growth Rate (HEK-293T; 12 h, replicate number 1): 0.83
- Growth Rate (HEK-293T; 12 h, replicate number 2): 0.78
- Growth Rate (HEK-293T; 18 h, replicate number 1): 0.88
- Growth Rate (HEK-293T; 18 h, replicate number 2): 0.83
- Growth Rate (HEK-293T; 24 h, replicate number 1): 0.9
- Growth Rate (HEK-293T; 24 h, replicate number 2): 0.69
- Growth Rate (Fibroblast; 6 h, replicate number 1): 0.99
- Growth Rate (Fibroblast; 6 h, replicate number 2): 0.8
- Growth Rate (Fibroblast; 12 h, replicate number 2): 0.83
- Growth Rate (Fibroblast; 18 h, replicate number 1): 0.87

Compound: Cl.O=C1c2cccc3c2[C@H](CCC3)CN1[C@@H]1CN2CCC1CC2 [PALONOSETRON HYDROCHLORIDE]
- Growth Rate (U2OS; 0 h, replicate number 1): -0.52
- Growth Rate (U2OS; 0 h, replicate number 2): -0.79
- Growth Rate (U2OS; 24 h, replicate number 1): 0.92
- Growth Rate (U2OS; 24 h, replicate number 2): 0.98
- Growth Rate (HEK-293T; 0 h, replicate number 1): 0.61
- Growth Rate (HEK-293T; 6 h, replicate number 1): 0.51
- Growth Rate (HEK-293T; 6 h, replicate number 2): -0.08
- Growth Rate (HEK-293T; 12 h, replicate number 1): 0.41
- Growth Rate (HEK-293T; 12 h, replicate number 2): 0.03
- Growth Rate (HEK-293T; 18 h, replicate number 1): 0.55
- Growth Rate (HEK-293T; 18 h, replicate number 2): 0.08
- Growth Rate (HEK-293T; 24 h, replicate number 1): 0.34
- Growth Rate (HEK-293T; 24 h, replicate number 2): 0.19
- Growth Rate (Fibroblast; 0 h, replicate number 2): 0.54
- Growth Rate (Fibroblast; 6 h, replicate number 1): -0.99
- Growth Rate (Fibroblast; 24 h, replicate number 2): 0.92

Compound: Cc1cc(-c2ccnc(Nc3cnn(C)c3)n2)ccc1CNC(=O)N1CC(OC(C)C)C1
- Growth Rate (U2OS; 6 h, replicate number 1): 0.99
- Growth Rate (U2OS; 6 h, replicate number 2): 0.93
- Growth Rate (U2OS; 12 h, replicate number 1): 0.8
- Growth Rate (U2OS; 18 h, replicate number 1): 0.98
- Growth Rate (U2OS; 24 h, replicate number 1): 0.89
- Growth Rate (HEK-293T; 6 h, replicate number 1): 0.37
- Growth Rate (HEK-293T; 12 h, replicate number 1): 0.72
- Growth Rate (HEK-293T; 18 h, replicate number 1): 0.79
- Growth Rate (HEK-293T; 24 h, replicate number 1): 0.98
- Growth Rate (Fibroblast; 0 h, replicate number 2): -0.87
- Growth Rate (Fibroblast; 6 h, replicate number 1): 0.47
- Growth Rate (Fibroblast; 18 h, replicate number 1): 0.97
- Growth Rate (Fibroblast; 24 h, replicate number 1): 0.75

Compound: COc1ccc(OC)c(-c2ccc(NC(=O)c3ccncc3F)cc2)c1
- Growth Rate (U2OS; 0 h, replicate number 1): -0.54
- Growth Rate (U2OS; 0 h, replicate number 2): -0.01
- Growth Rate (U2OS; 6 h, replicate number 1): 0.57
- Growth Rate (U2OS; 6 h, replicate number 2): 0.63
- Growth Rate (U2OS; 12 h, replicate number 1): 0.56
- Growth Rate (U2OS; 12 h, replicate number 2): 0.84
- Growth Rate (U2OS; 18 h, replicate number 1): 0.74
- Growth Rate (U2OS; 18 h, replicate number 2): 0.87
- Growth Rate (U2OS; 24 h, replicate number 1): 0.87
- Growth Rate (U2OS; 24 h, replicate number 2): 0.91
- Growth Rate (HEK-293T; 0 h, replicate number 1): -0.77
- Growth Rate (Fibroblast; 0 h, replicate number 1): -0.06
- Growth Rate (Fibroblast; 6 h, replicate number 2): -0.75
- Growth Rate (Fibroblast; 12 h, replicate number 2): 0.93
- Growth Rate (Fibroblast; 18 h, replicate number 1): -0.35
- Growth Rate (Fibroblast; 24 h, replicate number 2): 0.92

Compound: CCN1C(=O)c2cc(C)ccc2N(C)c2ncccc21
- Growth Rate (U2OS; 0 h, replicate number 2): 0.61
- Growth Rate (U2OS; 6 h, replicate number 2): 0.81
- Growth Rate (U2OS; 12 h, replicate number 1): 0.87
- Growth Rate (U2OS; 12 h, replicate number 2): 0.85
- Growth Rate (U2OS; 18 h, replicate number 2): 0.7
- Growth Rate (U2OS; 24 h, replicate number 2): 0.8
- Growth Rate (HEK-293T; 0 h, replicate number 1): 0.6
- Growth Rate (HEK-293T; 0 h, replicate number 2): 0.45
- Growth Rate (HEK-293T; 6 h, replicate number 1): 0.52
- Growth Rate (HEK-293T; 6 h, replicate number 2): 1
- Growth Rate (HEK-293T; 12 h, replicate number 1): 0.32
- Growth Rate (HEK-293T; 12 h, replicate number 2): 0.41
- Growth Rate (HEK-293T; 18 h, replicate number 1): 0.42
- Growth Rate (HEK-293T; 18 h, replicate number 2): 0.71
- Growth Rate (HEK-293T; 24 h, replicate number 1): 0.65
- Growth Rate (HEK-293T; 24 h, replicate number 2): 0.74
- Growth Rate (Fibroblast; 0 h, replicate number 1): -1
- Growth Rate (Fibroblast; 0 h, replicate number 2): -0.91
- Growth Rate (Fibroblast; 6 h, replicate number 1): 0.13
- Growth Rate (Fibroblast; 6 h, replicate number 2): 0.79
- Growth Rate (Fibroblast; 12 h, replicate number 1): 0.88
- Growth Rate (Fibroblast; 12 h, replicate number 2): 0.29
- Growth Rate (Fibroblast; 18 h, replicate number 1): 0.79
- Growth Rate (Fibroblast; 18 h, replicate number 2): 0.88

Compound: CC(=O)Nc1nc(CN2CCC[C@H](Cc3cc(C)nc(C)c3)C2)cs1 [JNJ-73924149]
- Growth Rate (U2OS; 12 h, replicate number 2): 0.87
- Growth Rate (U2OS; 18 h, replicate number 1): 0.89
- Growth Rate (U2OS; 24 h, replicate number 2): 0.91
- Growth Rate (HEK-293T; 6 h, replicate number 1): 0.52
- Growth Rate (HEK-293T; 6 h, replicate number 2): 0.53
- Growth Rate (HEK-293T; 12 h, replicate number 1): 0.71
- Growth Rate (HEK-293T; 18 h, replicate number 1): 0.81
- Growth Rate (HEK-293T; 18 h, replicate number 2): 0.95
- Growth Rate (HEK-293T; 24 h, replicate number 1): 0.82
- Growth Rate (HEK-293T; 24 h, replicate number 2): 0.95
- Growth Rate (Fibroblast; 6 h, replicate number 1): 0.58
- Growth Rate (Fibroblast; 6 h, replicate number 2): 0.73
- Growth Rate (Fibroblast; 12 h, replicate number 1): 0.89
- Growth Rate (Fibroblast; 12 h, replicate number 2): 0.74
- Growth Rate (Fibroblast; 18 h, replicate number 1): 0.87
- Growth Rate (Fibroblast; 18 h, replicate number 2): 0.72
- Growth Rate (Fibroblast; 24 h, replicate number 2): 0.79

Compound: CC(Oc1cc(-c2cnn(C3CCNCC3)c2)cnc1N)c1c(Cl)ccc(F)c1Cl (stereo not given)
- Growth Rate (U2OS; 0 h, replicate number 1): -1
- Growth Rate (U2OS; 12 h, replicate number 1): 0.53
- Growth Rate (U2OS; 12 h, replicate number 2): 0.65
- Growth Rate (U2OS; 18 h, replicate number 1): 0.4
- Growth Rate (U2OS; 18 h, replicate number 2): 0.45
- Growth Rate (U2OS; 24 h, replicate number 1): 0.39
- Growth Rate (U2OS; 24 h, replicate number 2): 0.5
- Growth Rate (HEK-293T; 6 h, replicate number 1): -0.85
- Growth Rate (HEK-293T; 6 h, replicate number 2): -0.51
- Growth Rate (HEK-293T; 12 h, replicate number 1): -0.78
- Growth Rate (HEK-293T; 12 h, replicate number 2): -0.35
- Growth Rate (HEK-293T; 18 h, replicate number 1): -0.49
- Growth Rate (HEK-293T; 18 h, replicate number 2): -0.18
- Growth Rate (HEK-293T; 24 h, replicate number 1): -0.28
- Growth Rate (HEK-293T; 24 h, replicate number 2): -0.11
- Growth Rate (Fibroblast; 6 h, replicate number 2): -0.95
- Growth Rate (Fibroblast; 12 h, replicate number 1): -0.94
- Growth Rate (Fibroblast; 12 h, replicate number 2): -0.64
- Growth Rate (Fibroblast; 18 h, replicate number 1): -0.67
- Growth Rate (Fibroblast; 18 h, replicate number 2): -0.52
- Growth Rate (Fibroblast; 24 h, replicate number 1): -0.22
- Growth Rate (Fibroblast; 24 h, replicate number 2): -0.44
